ChEMBL document CHEMBL1122102, “Hydrogen bonding and anesthetic potency” (J Med Chem, 1982)

Key:
[1] = tested on: Homo sapiens; experiment: Evaluated in vitro for anesthetic activity in man and minimum alveolar concentration (MAC) was determined; type: functional; parameters: unit not given here
[2] = tested on: Canis familiaris; experiment: Evaluated in vitro for anesthetic activity in dog and minimum alveolar concentration (MAC) was determined; type: functional, Canis lupus familiaris; parameters: unit not given here
[3] = tested on: Mus musculus; experiment: Evaluated in vitro for anesthetic activity in mice and ED50 value was reported; type: functional
[4] = Partition coefficient was determined in oil/gas system and value was reported; type: ADME

SMILES | MAC [1] | MAC [2] | ED50 [3] | Partition coefficient [4]
ClC(Cl)Cl [CHLOROFORM] | 0.5 | 0.77 | 0.84 | –
FC(F)OC(Cl)C(F)(F)F (stereo not drawn) [ISOFLURANE] | 1.15 | 1.28 | 0.57 | 97
FC(F)(F)C(Cl)Br (stereo not drawn) [HALOTHANE] | 0.74 | 0.87 | 0.77 | 220
COC(F)(F)C(Cl)Cl [METHOXYFLURANE] | 0.16 | 0.24 | 0.22 | 950
FC(F)OC(F)(F)C(F)Cl (stereo not drawn) | 1.68 | 2.06 | – | 98
